Experimental data taken from patent publication US20230392121A1, “HYDROGELS FOR CELL CULTURE” (KATHOLIEKE UNIVERSITEIT LEUVEN, priority 2020, published 2023).
Where two headings read alike, the source gives them in different places.

Columns and labels:
PSC-Mφs [1] = assay: LPS exposure of HepMat-PSC-Mφ cultures; type: cell-based, human; conditions: 100 ng/ml LPS
Protocol: Mφs were generated from PSCs, using a protocol adapted from van Wilgenburg et al. (2013) PLoS One. 8, e71098 (FIG. 3C). […] Thus, PSC-Mφs could also be functionally maintained for at least 32 days in HepMat hydrogels.
LPS exposure of HepMat-PSC-MEs cultures: Day 32 HepMat-PSC-M[…]s mono-cultures were exposed to 100 ng/ml of LPS (Sigma-Aldrich). Expression of inflammatory genes was determined by RT-qPCR. Supernatants were collected for inflammatory cytokine measurement by ELISA.

HepMat co-cultures [2] = assay: Oleic acid exposure of HepMat co-cultures (BODIPY, RT-qPCR, ELISA); type: cell-based, human
Protocol: (§1) d32 HepMat co-cultures were also exposed to 0.8 mM OA for 3 days (1 dose) and 7 days (2 doses).
(§2) Oleic acid (OA) exposure of HepMat-co-cultures and mono-cultures: Day 32 HepMat co-cultures and Day 32 HepMat HC3x HLC, HSC and Mφ mono-cultures were incubated with 800 μM of OA (Sigma-Aldrich) for 7 days (addition on day 0 and day 3). Day 32 HepMat co-cultures were also incubated with a combination 800 μM of OA and 1 μM Obeticholic acid (OCA) (Company) or 800 μM of OA and 30 μM Elafibranor (ELN) (Company) for 3 days (addition on day 0 only). Expression of inflammatory and fibrogenic genes was determined by RT-1PCR. Supernatants were collected for pro-collagen measurement by ELISA on day 3 and day 7. In addition, co-culture were assayed for presence of steatosis by BODIPY® staining on day 3 and day 7 as follows: Gels were transferred to Glass Bottom plates (cellvis) for live-cell imaging, following incubation with BODIPY® 493/503 for lipids (Thermo Fisher Scientific) and Hoechst (Sigma Aldrich). Sample was visualised and scanned on a laser scanning confocal microscope (LSM 880, Zeiss, Germany),
(§3) The supernatant was assayed for human TNF-alpha, ILla1pha, and IL6 by ELISA (Biolegend, CA, USA), according to the manufacturer's instructions. Presence of pro-collagen type I was detected by Pro-collagen Type I C-peptide ELISA kit (Takara Bio Inc). Secreted level of TNF-alpha, IL1alpha, IL6 and pro-collagen 1 were normalised for the cell number.

[3] = test system: HC3x HLC, HSC and Mφ mono-cultures; assay: Oleic acid exposure of HepMat mono-cultures; type: cell-based, human
Protocol: as §1, §2
The supernatant was assayed for human TNF-alpha, ILla1pha, and IL6 by ELISA (Biolegend, CA, USA), according to the manufacturer's instructions. Presence of pro-collagen type I was detected by Pro-collagen Type I C-peptide ELISA kit (Takara Bio Inc). […]

iETV2-ECs [4] = assay: Oleic acid treatment of iETV2-ECs; type: cell-based, human; conditions: OA treatment
Protocol: as §1

PSC-Mφs [5] = assay: TGFβ exposure of PSC-Mφ HepMat mono-cultures; type: cell-based, human; conditions: supernatants
Protocol: (§4) It was investigated whether HepMat co-cultures could be used to model liver fibrosis/steatosis, by exposing cultures either to TGFβ or oleic acid (OA). d32 HepMat co-cultures were treated with 25 ng/ml of TGFβ for an additional 3 days (single administration) or 7 days (2 administrations). […] In addition, TGFβ induced a 7±0.4-fold higher level of pro-collagen and 17±3.4-fold higher level of IL6 on day 7 of treatment in HepMat co-culture supernatants. Pro-collagen levels were unchanged in HC3x-HLCs and PSC-Mφ mono-cultures and ±3-fold increase in PSC-HSCs following 3 and 7 days of treatment with TGFβ.
(§5) TGFβ exposure of HepMat-co-cultures and mono-cultures: Day 32 HepMat co-cultures and dayy 32 HepMat HC3x HLC, HSC and Mφ mono-cultures were incubated with 25 ng/ml TGFβ for 7 days (addition on day 0 and day 3). Expression of inflammatory and fibrogenic genes was determined by RT-qPCR. Supernatants were collected for pro-collagen measurement by ELISA.
as §3

PSC-HSCs [6] = assay: TGFβ exposure of HepMat-PSC-HSC cultures (24 h); type: cell-based, human; conditions: 25 ng/mL TGFβ
Protocol: Day 12 HSC expressed ACTA2, PDG1FRα, COL1A1, COL3A1, COL5A2 and LOXL2 but low levels of LRAT (important for Vitamin-A metabolism in quiescent HSCs) and the more recently identified non-fibrotic HSC marker genes, RGS5 and IGFBP5 (FIGS. 3B and 3E). Accutase-harvested d12 PSC-HSCs were embedded at 3×10^5 cells/10 μl HepMat hydrogel, and maintained for 32 days in HSC medium. HSCs survived for 32 days in the HepMat hydrogel (Calcein-AM staining; FIG. 3B). […] Consistently, HSCs cultured in HepMat hydrogels stored retinol, as shown by BODIPY® staining and presence of typical blue autofluorescence elicited by UV light, even when cultured with low concentrations of palmitic acid (FIG. 3B). […] Thus, PSC-HSCs can be maintained for at least 32 days in the HepMat hydrogels. Moreover, culture of HSCs in these hydrogels may at least in part induce a less fibrotic HSC phenotype while still allowing TGFβ-mediated activation.
TGFβ exposure of HepMat-PSC-HSC cultures: Day 32 HepMat-PSC-HSC mono-cultures hydrogels were exposed to 25 ng/ml of TGFβ (Peprotech) on day 32. Expression of inflammatory and fibrogenic genes was determined by RT-1PCR. Supernatants were collected for pro-collagen measurement by ELISA.

PSC-HSCs [7] = assay: TGFβ exposure of PSC-HSC HepMat mono-cultures (3 and 7 days); type: cell-based, human
Protocol: as §4, §5, §3

iETV2-ECs [8] = type: cell-based, human
HepMat co-cultures [9] = assay: TGFβ exposure of HepMat co-cultures (RT-qPCR, ELISA); type: cell-based, human
Protocol: as §4, §5, §3

HC3x-HLCs = assay: TGFβ exposure of HC3x-HLC HepMat mono-cultures; type: cell-based, human
Protocol: as §4, §5, §3

HepMat co-cultures [10] = assay: Co-treatment of HepMat co-cultures with OA & OCA or OA & ELN; type: cell-based, human; conditions: 800 μM OA with 1 μM OCA or 30 μM ELN, 3 days
Protocol: A similar effect was observed on proinflammatory parameters.
as §2, §3

[11] = phase III; cited from earlier work
[12] = 25 ng/ml TGFβ, d32 HepMat co-cultures

## lipopolysaccharide [LPS]
PSC-Mφs [1]; ELISA, significant for IL6
  secretion of TNFα, IL1α and IL6: increased secretion of all three cytokines
PSC-Mφs [1]; additional 48 hours, RT-qPCR
  expression of TNFα, IL1α and IL6: significantly induced

## CCCCCCCC/C=C\CCCCCCCC(=O)O [OA, oleic acid]
HepMat co-cultures [2]; 0.8 mM OA, d3
  IL6 expression: 1200 fold
HepMat co-cultures [2]; 0.8 mM OA, d7
  IL6 expression: 1000 fold
HepMat co-cultures [2]; 0.8 mM OA, day 3, persisted until day 7
  lipid accumulation, BODIPY staining: significant lipid accumulation
HepMat co-cultures [2]; 0.8 mM OA, day 7
  induction of COL1A1, COL1A3, COL5A2 as well as LOXL2: even greater induction
HepMat co-cultures [2]; 3 day after administration of OA
  increase in pro-collagen in supernatants: 5±0.5 fold
HepMat co-cultures [2]; 7 day after administration of OA
  increase in pro-collagen in supernatants: 12±1.5 fold
HepMat co-cultures [2]; day 7
  increase in IL6 in supernatants: 90±5 fold
[3]; any of the mono-cultures
  pro-collagen or inflammatory cytokines in supernatants: no significant changes
[3]; mono-cultures, 3 days after OA addition
  induction in COL1A1 and COL3A1 transcripts: ~9 fold
iETV2-ECs [4]
  survival of iETV2-ECs: did not survive

## TGFβ
PSC-Mφs [5]
  Pro-collagen levels: unchanged
PSC-HSCs [6]; ELISA
  secreted levels of pro-collagen: significantly higher levels
PSC-HSCs [6]; d32 HepMat HSCs
  LRAT transcript levels: significant decrease
  expression of COL1A1: significant increase
PSC-HSCs [7]; 3 and 7 days of treatment with TGFβ
  increase in pro-collagen levels: ~3 fold
PSC-HSCs [7]; d3
  induction of COL1A1 and COL3A1 transcripts: 4±1.1 fold
iETV2-ECs [8]
  survival of iETV2-ECs: did not survive
HepMat co-cultures [9]; [12]
  increase in transcripts for COL1A1: 17±3.5 fold
  increase in transcripts for COL3A1: 13±3.4 fold
  increase in transcripts for COL5A2 or LOXL2: but not COL5A2 or LOXL2
HepMat co-cultures [9]; TGFβ exposure for 7 days
  induction of IL1α transcripts: 7±0.49 fold
  induction of IL6 transcripts: 13±4.3 fold
HepMat co-cultures [9]; day 7 of treatment, ELISA
  higher level of IL6 in supernatants: 17±3.4 fold
  higher level of pro-collagen in supernatants: 7±0.4 fold
HC3x-HLCs; 3 days treatment
  induction of COL1A1 transcripts: 9±1.6 fold
HC3x-HLCs; 7 days treatment
  induction of COL1A1 transcripts: 5±0.7 fold
HC3x-HLCs; TGFβ, supernatants
  Pro-collagen levels: unchanged

## CSc1ccc(C(=O)/C=C/c2cc(C)c(OC(C)(C)C(=O)O)c(C)c2)cc1 [ELN, elafibranor]
HepMat co-cultures [10]
  COL1A1 transcript levels: inhibited
  IL6 transcripts: significantly reduced
  bodipy staining: significant reduction
  pro-collagen secretion in culture supernatants: no effect
  production of secreted IL6: did not inhibit
[11]
  improvement of liver fibrosis compared to placebo: not significantly improve
